According to patent US10017463B2, “Inhibitors of deubiquitinating proteases” (Brandeis University, priority 2014, dated 2018):
Read-outs that look alike come from different tables or passages of the source.

Experiments:
Bcr-Abl [1] = assay: Bcr-Abl immunoblot in K562 cells; assay type: cell-based; settings: for decrease in Bcr-Abl: 30 μM, 4 h
Method: After this time cells were lysed and sonicated in SDS. Whole cell lysates were analyzed for Bcr-Abl and tubulin in triplicate. Panel B is a bar graph showing the quantitation of the blots in Panel A. Panel C is a plot showing differing concentrations of TU50 were added to K562 cells and after 4 h the amount of Bcr-Abl was measured in whole cell lysates.

USP9x [2] = biological target: T1, USP9x (Homo sapiens, UniProt Q93008); assay: HA-Ubiquitin-Vinylsulfone activity profiling in K562 lysates; assay type: biochemical
T1 construct: Lysate labeling assay on untransfected cells; endogenous in cells; host or cells: K562
T1 sequence (Q93008 whole entry): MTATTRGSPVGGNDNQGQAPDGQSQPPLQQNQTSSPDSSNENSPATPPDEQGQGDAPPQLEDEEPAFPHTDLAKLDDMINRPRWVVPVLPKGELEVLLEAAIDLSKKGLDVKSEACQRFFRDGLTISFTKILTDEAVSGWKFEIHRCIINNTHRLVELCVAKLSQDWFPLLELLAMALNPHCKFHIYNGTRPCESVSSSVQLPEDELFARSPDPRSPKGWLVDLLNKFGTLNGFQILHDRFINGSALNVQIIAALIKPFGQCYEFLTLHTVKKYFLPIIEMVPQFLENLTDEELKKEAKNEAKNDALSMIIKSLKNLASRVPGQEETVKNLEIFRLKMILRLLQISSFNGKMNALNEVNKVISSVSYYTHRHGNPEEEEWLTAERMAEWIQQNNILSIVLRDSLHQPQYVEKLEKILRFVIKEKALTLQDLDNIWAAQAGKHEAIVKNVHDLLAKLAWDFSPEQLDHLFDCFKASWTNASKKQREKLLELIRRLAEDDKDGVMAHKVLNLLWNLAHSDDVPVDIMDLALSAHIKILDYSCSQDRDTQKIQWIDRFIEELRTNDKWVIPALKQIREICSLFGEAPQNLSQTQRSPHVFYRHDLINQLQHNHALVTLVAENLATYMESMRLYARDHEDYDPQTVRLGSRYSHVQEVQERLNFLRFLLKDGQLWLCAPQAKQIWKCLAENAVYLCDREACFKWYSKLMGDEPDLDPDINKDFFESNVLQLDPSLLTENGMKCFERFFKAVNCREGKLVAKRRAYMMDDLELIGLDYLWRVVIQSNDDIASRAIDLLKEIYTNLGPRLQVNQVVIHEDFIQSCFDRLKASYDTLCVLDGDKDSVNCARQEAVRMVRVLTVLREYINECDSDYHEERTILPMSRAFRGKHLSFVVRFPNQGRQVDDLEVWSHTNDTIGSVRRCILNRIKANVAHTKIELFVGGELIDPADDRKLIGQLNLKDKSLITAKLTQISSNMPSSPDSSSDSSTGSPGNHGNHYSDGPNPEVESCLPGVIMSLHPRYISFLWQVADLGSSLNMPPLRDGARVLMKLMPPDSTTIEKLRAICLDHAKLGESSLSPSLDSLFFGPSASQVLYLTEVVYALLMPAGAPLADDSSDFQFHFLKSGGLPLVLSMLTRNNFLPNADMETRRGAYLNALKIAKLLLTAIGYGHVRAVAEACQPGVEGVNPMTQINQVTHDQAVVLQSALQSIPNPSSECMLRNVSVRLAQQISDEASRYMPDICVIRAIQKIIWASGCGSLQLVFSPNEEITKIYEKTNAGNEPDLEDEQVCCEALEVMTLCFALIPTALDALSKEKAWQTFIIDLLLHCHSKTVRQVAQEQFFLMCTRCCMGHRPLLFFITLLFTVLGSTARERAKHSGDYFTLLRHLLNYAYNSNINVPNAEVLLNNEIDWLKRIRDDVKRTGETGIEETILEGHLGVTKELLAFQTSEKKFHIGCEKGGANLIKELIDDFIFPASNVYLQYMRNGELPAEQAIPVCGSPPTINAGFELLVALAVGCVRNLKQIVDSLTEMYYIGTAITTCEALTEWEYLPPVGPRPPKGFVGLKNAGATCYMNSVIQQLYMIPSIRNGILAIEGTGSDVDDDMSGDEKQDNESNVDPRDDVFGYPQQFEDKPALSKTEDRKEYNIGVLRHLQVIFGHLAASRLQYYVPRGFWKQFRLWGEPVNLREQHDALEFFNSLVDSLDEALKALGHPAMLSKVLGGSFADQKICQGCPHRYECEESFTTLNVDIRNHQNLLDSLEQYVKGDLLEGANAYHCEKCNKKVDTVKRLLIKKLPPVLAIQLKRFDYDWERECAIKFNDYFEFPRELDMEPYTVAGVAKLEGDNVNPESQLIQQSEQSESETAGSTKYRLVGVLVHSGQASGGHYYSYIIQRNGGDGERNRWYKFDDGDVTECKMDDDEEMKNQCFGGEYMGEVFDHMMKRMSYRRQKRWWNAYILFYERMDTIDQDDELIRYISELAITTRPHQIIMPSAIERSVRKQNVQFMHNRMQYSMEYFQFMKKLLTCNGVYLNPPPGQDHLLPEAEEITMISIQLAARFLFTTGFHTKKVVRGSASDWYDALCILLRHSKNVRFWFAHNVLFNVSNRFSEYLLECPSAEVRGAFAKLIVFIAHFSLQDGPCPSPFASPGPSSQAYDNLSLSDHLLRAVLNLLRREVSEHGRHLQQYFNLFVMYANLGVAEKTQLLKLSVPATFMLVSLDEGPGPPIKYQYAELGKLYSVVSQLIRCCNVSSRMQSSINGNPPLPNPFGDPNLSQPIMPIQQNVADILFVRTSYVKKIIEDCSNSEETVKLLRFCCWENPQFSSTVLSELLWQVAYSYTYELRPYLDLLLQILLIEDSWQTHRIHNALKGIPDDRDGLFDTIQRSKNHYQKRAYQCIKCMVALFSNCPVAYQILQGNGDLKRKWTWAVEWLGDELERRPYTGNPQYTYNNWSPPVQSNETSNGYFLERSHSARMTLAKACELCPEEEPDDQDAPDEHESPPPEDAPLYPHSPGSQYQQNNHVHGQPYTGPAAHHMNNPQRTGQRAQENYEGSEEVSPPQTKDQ
Method: Panel B is an image of an immunoblot showing the titration of TCM23 and TCM28 in K562 lysates. Panel C is a plot showing the quantitation of band corresponding to USP9x in panel B. Panel D is an image of an immunoblot showing the titration of WP1130 in K562 lysates. Panel E is a plot showing the quantification of the efficacy of ITCs for the inhibition of USP9x in K562 lysates (see also Table 2).
[…] After this time HA-Ub-VS (1.5 μM) was added and incubated for 15 min. After this time reaction mixture (15 μL) was removed and quenched in 2× (final concentration) reducing Laemeli buffer. The reaction mixtures were heated to 37° C. for 10 min prior to analysis by western blot for HA.

BaF3 parent = assay: Growth inhibition assay, BaF3 parent; assay type: cell-based; settings: at higher concentrations than BaF3/p210
Excerpt: MCL1 is required to sustain growth of many transformed cells and is also regulated by USP9x. […] These findings help to explain why these compounds are toxic to Bcr-Abl independent cancer lines, especially BaF3.

[3] = biological target: purified recombinant USP9x (Homo sapiens, UniProt Q93008); assay: Purified recombinant USP9x, Cy5-Ub-VME activity profiling; assay type: biochemical; settings: for inhibition of USP9x in presence of USP7CD: at 12.5 μM; for fluorescent signal of USP9x-(Cy5-Ub-VME) complex: preincubation at 50 or 25 μM
purified recombinant USP9x, sequence (Q93008 whole entry, species assumed): as the sequence (Q93008 whole entry) above
Method: (§1) Panel A is an image showing that purified recombinant USP9x (7 nM) was treated with the stated compound at 50 μM for 19 min prior to addition of Cy5-Ub-VME for 5 min, then the mixture was resolved by S.D.S-PAGE and analyzed on a typhoon imager. Panel B is an image of an immunoblot showing purified recombinant USP9x (7 nM) and USP7CD (20 nM) were treated with the stated compound at the stated concentration for 19 min prior to addition of Cy5-Ub-VME for 5 min then the mixture was resolved by S.D.S-PAGE and analyzed on a Typhoon imager.

K48-linked ubiquitin = K48-linked ubiquitin immunoblot in BaF3/p210 cells; assay type: cell-based, murine; settings: 4 h, various concentrations
Method: Panel A is an image of an immunoblot showing BaF3/p210 cells were treated with various concentrations of TU46 for 4 h, and then whole cell lysates were blotted for K48-linked ubiquitin and tubulin. Panel B is an immunoblot showing same lysates as in Panel A were blotted for Bcr-Abl.
The K48-linked ubiquitin levels were also probed in these lysates. […] The increase in K48-linked ubiquitin coincided with the loss of Bcr-Abl (FIG. 8, Panel B). Since USP9x is known to deubiquitinate K48-linked polyubiquitin chains, it is possible that this increase in K48-linked ubiquitin is due to USP9x inhibition. See Park et al., PNAS 110, 9433-9438 (2013).

USP9x [4] = biological target: T2, USP9x (Mus musculus, UniProt P70398); assay: Cy5-Ub-VME profiling of BaF3 lysates; assay type: biochemical, murine; settings: BaF3 lysate, approximately 22 bands
T2 construct: endogenous in cells; host or cells: BaF3
Method: Panel A is an image of an immunoblot showing representative scans of lysates treated with compound for 15 min then Cy5-Ub-VME. Panel B is a plot of the bands in each lane using Image J processing and analysis software.
Using Image J, the individual lanes from the lysates were plotted as a function of TU50 concentration.

[5] = tested on: DUBs other than USP9x, most notably UCHL5; assay: HA-Ubiquitin-Vinylsulfone activity profiling, other DUBs; assay type: biochemical; settings: for inhibition of other DUBs other than USP9x: at 85 μM; for inhibition of other DUBs: below 25 μM
Method: Lysate labeling assay on untransfected cells (1.5 mg/mL lysate lysed using a Dounce homogenizer, 10 strokes, in 75 mM potassium phosphate pH 7.6, 150 mM NaCl, 0.75 mM BME) was run with the stated concentration of inhibitor (or 1% DMSO control) for 30 min. After this time HA-Ub-VS (1.5 μM) was added and incubated for 15 min. After this time reaction mixture (15 μL) was removed and quenched in 2× (final concentration) reducing Laemeli buffer. The reaction mixtures were heated to 37° C. for 10 min prior to analysis by western blot for HA. […] EC50s calculated by this method were in agreement with those found in the HA-blot.

Bcr-Abl [6] = assay: Bcr-Abl immunoblot in BaF3/p210 cells; assay type: cell-based, murine; settings: 4 h
Method: After this time cells were lysed and sonicated in S.D.S. Whole cell lysates were analyzed for Bcr-Abl and tubulin in triplicate. Panel B is a bar graph showing the quantitation of blots in Panel A. Panel C is an image of an immunoblot showing BaF3 cells were treated with various concentrations of TU50 in triplicate for 4 h, and then whole cell lysates were analyzed for Bcr-Abl and tubulin. Panel D is an image of an immunoblot similar to the experiment in Panel C but using TU46. Panel E is an image of an immunoblot similar to the experiment in Panel D but using TU49. Panel F is a plot showing the quantification of blots in Panel C, Panel D, and Panel E.
Proliferation inhibition/apoptosis assays and lysate activity profiling were all consistent with USP9x inhibition. Next, whether cell death in BaF3/p210 cells occurred through degradation of Bcr-Abl was validated. […] Encouragingly, the EC50 for Bcr-Abl degradation was 8±2 μM for TU50, which is within 2 fold of the proliferation inhibition EC50 obtained above (FIG. 7, Panel C).

[7] = biological target: T3, USP7 catalytic domain (USP7CD) (Homo sapiens, UniProt Q93009); assay: USP7 catalytic domain, Cy5-Ub-VME activity profiling; assay type: biochemical; settings: at 12.5 μM
T3 construct: USP7 catalytic domain (USP7CD)
T3 sequence (Q93009 214-521 limits assumed, species assumed): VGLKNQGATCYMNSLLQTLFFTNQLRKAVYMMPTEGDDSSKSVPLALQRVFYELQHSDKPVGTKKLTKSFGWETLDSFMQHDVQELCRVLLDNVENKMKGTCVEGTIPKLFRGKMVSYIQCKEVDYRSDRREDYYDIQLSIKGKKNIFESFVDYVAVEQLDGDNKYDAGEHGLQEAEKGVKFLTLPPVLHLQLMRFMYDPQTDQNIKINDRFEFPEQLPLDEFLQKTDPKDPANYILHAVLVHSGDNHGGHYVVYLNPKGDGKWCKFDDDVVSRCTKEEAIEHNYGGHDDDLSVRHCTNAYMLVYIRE
Method: as §1
In addition, the amount of free inhibitor is unknown and thus the true kon could be much higher.

leukemic cell lines = assay: NCI-60 human tumor cell line screen; assay type: cell-based; settings: 48 h treatment
Excerpt: For example, a value of 100 means no growth inhibition and a value of 40 indicates 60% growth inhibition. A value of ‘0’ indicates complete growth inhibition.

[8] = HA-Ub-VS profiling, values in text, read-out: EC50 for USP9x
[9] = inhibition of USP9x in K562 lysates, data from FIG. 1, read-out: EC50
[10] = whole cell lysates sonicated, read-out: EC50 for Bcr-Abl degradation/knockdown

Row | Compound | decrease in Bcr-Abl (Bcr-Abl [1]) | inhibition of USP9x (USP9x [2]) | EC50 (USP9x [2]; [8]) | EC50 (USP9x [2]; [9]) | susceptibility of BaF3 parent (growth inhibition) (BaF3 parent) | inhibition of USP9x in presence of USP7CD [3] | fluorescent signal of USP9x-(Cy5-Ub-VME) complex [3] | K48-linked ubiquitin level (K48-linked ubiquitin) | selectivity for USP9x among Cy5-Ub-VME reactive bands (USP9x [4]) | inhibition of other DUBs other than USP9x [5] | inhibition of other DUBs [5] | EC50 (Bcr-Abl [6]; unsonicated, read-out: EC50 for Bcr-Abl knockdown) | EC50 (Bcr-Abl [6]; [10]) | inhibition of USP7CD [7] | EC50 (Bcr-Abl [1]; K562, 4 h, read-out: EC50 for Bcr-Abl degradation) | lethality in NCI-60 screen (leukemic cell lines)
1 | CC(C)(C)OC(=O)NCCc1ccc(N=C=S)cc1 [TU46] | four-fold decrease | significant inhibition | 6 to 12 µM | 12 µM | susceptible | strongly inhibited | oblation of the fluorescent signal | increases K48-linked ubiquitin | selective for USP9x | weak inhibition | little inhibition | 15 ± 7 µM | 9 ± 3 µM | little inhibition |  | 
2 | O=C(NCc1ccc(N=C=S)cc1)OCc1ccccc1 [TU49] | four-fold decrease |  |  |  |  |  |  |  |  | weak inhibition | little inhibition |  | 9 ± 5 µM | little inhibition |  | 
3 | CC(C)(C)OC(=O)NCc1cccc(N=C=S)c1 [TU50] | four-fold decrease | significant inhibition | 6 to 12 µM | 9 µM | susceptible | strongly inhibited | oblation of the fluorescent signal |  | clearly the most affected | weak inhibition | little inhibition |  | 8 ± 2 µM | little inhibition | 12 µM | selective lethality against leukemic cell lines
